# According to US8529542B2, “Method and system for sustained-release of sclerosing agent” (UTI Limited Partnership, priority 2007, dated 2013):
# Key:
# [1] = system: rabbit model of pleurodesis; experiment: Direct daily dosing at low levels, rabbit model of pleurodesis; type: in vivo; conditions: for average pleurodesis score: score out of 8
# Method: These experiments were carried out in order to determine if low doses of sclerosing agents could result in successful pleurodesis when administered in a repeated fashion. Using daily doses of silver nitrate or doxycycline in decreasing doses starting at the lower limit of what has previously been reported to be effective, further decreases in dosing were administered utilizing single day, 5 day or 14 day regimens. Theoretically utilizing lower doses on a repeated basis may reduce the frequency and/or severity of side effects.
# All experiments were carried out in a rabbit model of pleurodesis which has been extensively utilized in the field of pleurodesis in many centers around the world. As explained in further detail below, standard pleurodesis is score graded one to 8 and is used for assessment of the efficacy of pleurodesis, the number one representing a normal pleural space while 8 represents complete pleural symphysis. A score of 5 or higher is usually considered consistent with a successful pleurodesis.
# A total of 18 animals were treated with doxycycline at doses of 1 mg/kg, 5 mg/kg, or 10 mg/kg. Animals (n=2) in the 10 mg/kg group received only the single day injection, animals (n=2/group) in the 5 mg/kg range received either 1 day, 5 days or 14 days injection, and animals in the lowest dose range of 1 mg/kg (n=2/group) received repeated injections over 5 days or 14 days. The results were compared with the placebo groups (n=2/group) which were given saline injections over either 1, 5 or 14 days. All doses were administered after a daily drainage. At the end of the treatment period, the animals were euthanized and pleurodesis was scored according to the standard scoring system shown in FIG. 5.
# A total of 20 animals were treated with silver nitrate at dosing concentrations of 0.05%, 0.085%, 0.425% and 0.85%. Note that reported effective single dose injections of silver nitrate in this model range from 0.3% to 0.5%. A concentration of 0.25% was reported to be ineffective in one publication, but overall data is limited. The groups were assigned a treatment period of either a 1 day, 5 days or 14 days of repeated injections. A minimum of 2 animals were used for each of the 10 groups, and a further 2 animals were tested at the lowest dose range (0.05%). The results were compared with the placebo groups which were given saline injections over either 1, 5 or 14 days (n=2/group). All doses were administered after a daily drainage. At the end of the treatment period, the animals were euthanized and pleurodesis was scored according to the standard scoring table (shown in FIG. 5). Degree of pleural inflammation and fibrosis was also evaluated.
# patients = conditions: cited from earlier work; for pain after intrapleural administration: literature reports
# animal model = conditions: cited from earlier work
# [2] = system: rabbit model of pleurodesis; conditions: concentration of 0.25%; cited from earlier work
smiles,measurement,setting,value
C[C@H]1c2cccc(O)c2C(=O)C2=C(O)[C@]3(O)C(=O)C(C(N)=O)=C(O)[C@@H](N(C)C)[C@@H]3[C@@H](O)[C@@H]21 [doxycycline],pleurodesis score,"[1]; 5 mg/kg over 14 days, score 1-8",5
same,mean pleurodesis score,"[1]; 10 mg/kg single dose, score 1-8",4.5
same,pain after intrapleural administration,patients,significant
CN(C)c1ccc(O)c2c1C[C@H]1C[C@H]3[C@H](N(C)C)C(O)=C(C(N)=O)C(=O)[C@@]3(O)C(O)=C1C2=O [minocycline],mortality,"animal model; higher doses, intrapleural (Light et al., 1994)",excess mortality
O=[N+]([O-])[O-].[Ag+] [silver nitrate],pleurodesis outcome (one publication),[2],ineffective
same,average pleurodesis score,[1]; 0.05% 14 days of repeated injections,6.5
same,pleurodesis scores,[1]; 0.050% administered for 14 days,greater than or equal to 5
same,pleurodesis scores,[1]; 0.085% administered for 5 days,successful pleurodesis scores
same,average pleurodesis score,[1]; 0.085% repeated daily over 5 days,7.5
same,pleurodesis outcome,[1]; 0.085% single dose,ineffective in achieving pleurodesis
same,average pleurodesis score,[1]; 0.425% single day injection,8
same,average pleurodesis score,[1]; 0.85% single day injection,8
same,"systemic response (white blood cell count elevation, neutrophilia, serum interleukin-8 and VEGF levels)","animal model; concentration of 0.1% vs 0.5% dose (Marchi et al., 2005)",less systemic response
same,tolerability in human trial,"patients; 0.5% concentration (Paschoalini et al., 2005)",well tolerated
same,clinical side effects,patients; concentrations of up 10% (Wied et al.),severe pain and side effects
same,pain after intrapleural administration,patients,significant
CN(C)[C@@H]1C(O)=C(C(N)=O)C(=O)[C@@]2(O)C(O)=C3C(=O)c4c(O)cccc4[C@@](C)(O)[C@H]3C[C@@H]12 [tetracycline],pain after intrapleural administration,patients,Intense pain
